According to the NIST ThermoML archive (doi:10.1016/j.jct.2007.04.005):

Assay: xn = mol fraction of the nth substance listed
Settings: 308.15 K, Liquid

CCCCCCCCC [nonane] + C1CCCCC1
mass density [kg/m3]
Settings | x2 = 0 | x2 = 0.09303 | x2 = 0.2009 | x2 = 0.3051 | x2 = 0.417 | x2 = 0.512 | x2 = 0.5996 | x2 = 0.7052 | x2 = 0.7993 | x2 = 0.9039
8210 kPa | – | – | – | – | – | – | 738.1 | 744.9 | 752 | 761
10230 kPa | 714.1 | 717.1 | 721 | 725.2 | 730.1 | 734.7 | 739.8 | 746.6 | 753.6 | 762.7
11250 kPa | 714.9 | 717.9 | 721.8 | 726 | 730.9 | 735.5 | 740.6 | 747.4 | 754.4 | 763.5
12260 kPa | 715.7 | 718.7 | 722.6 | 726.8 | 731.7 | 736.3 | 741.4 | 748.2 | 755.3 | 764.4
14290 kPa | 717.2 | 720.3 | 724.2 | 728.3 | 733.3 | 737.9 | 743 | 749.8 | 756.9 | 766
16310 kPa | 718.7 | 721.8 | 725.7 | 729.9 | 734.8 | 739.4 | 744.5 | 751.4 | 758.4 | 767.5
18340 kPa | 720.2 | 723.2 | 727.2 | 731.4 | 736.3 | 740.9 | 746.1 | – | – | –
